Measured values taken from US11512079B2, “Heterocycle substituted pyridine derivative antifungal agents” (Amplyx Pharmaceuticals, Inc., priority 2017, dated 2022).
≈ marks a conversion by molar mass, not a printed value.

What was measured:
Type in all cases: cell-based
Candida albicans 90028 = assay: In vitro antifungal assay (Example IX), microdilution broth, MIC; settings: minimum inhibitory concentration (≥50% inhibition), 35° C., 40-48 h, RPMI1640
Outline: (§1)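 CLSI broth microdilution in RPMI1640 with 2.5×10^3 cells/mL and final compound concentrations of 2-0.0019 μg/mL (1% DMSO). C. albicans 90028 plates were incubated at 35° C. for 40-48 h and C. neoformans H99 for 72 h. MIC was read as minimum inhibitory concentration, verified at 600 nm.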

[1] = test system: Cryptococcus neoformans H99; assay: as above; settings: minimum inhibitory concentration (≥50% inhibition), 35° C., 72 h, RPMI1640
Outline: as §1

[2] = test system: Aspergillus fumigatus MYA3626; assay: In vitro antifungal assay (Example IX), microdilution broth, MEC; settings: minimum effective concentration (shortening of hyphae), 35° C., 40-48 h, RPMI1640
Outline: (§2)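 Spore suspensions of A. fumigatus and R. pusillus adjusted to 1-2×10^4 spores/mL in RPMI1640 and exposed to compound dilutions prepared in DMSO, by broth microdilution. MEC taken as the lowest concentration shortening hyphae versus DMSO control wells, read as for echinocandins.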

[3] = test system: Rhizomucor pusillus 46342; assay: as above; settings: minimum effective concentration (shortening of hyphae), 35° C., 40-48 h, RPMI1640
Outline: as §2

Cryptococcus gattii = assay: In vitro antifungal assay (Example IX), microdilution broth, MIC; settings: minimum inhibitory concentration (≥50% inhibition), 35° C., 72 h (Cryptococcus), RPMI1640
Outline: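 Broth microdilution in RPMI1640 with 2.5×10^3 cells/mL inoculum; final compound concentrations were 2–0.0019 μg/mL, with 1% DMSO. Cryptococcus plates were incubated at 35 °C for 72 h, and growth was read at 600 nm to give the MIC.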

Work on `N#CCCOc1ccc(Cc2cc(-c3cccnc3N)on2)cn1` [compound 224, 3-((5-((5-(2-aminopyridin-3-yl)isoxazol-3-yl)methyl)pyridin-2-yl)oxy)propanenitrile] yielded an MIC (Candida albicans 90028) of over 1 µg/mL, an MIC [1] of over 1 µg/mL and a minimal effective concentration [2] of over 1 µg/mL. For the same compound, the minimal effective concentration [3] was over 1 µg/mL and the MIC (Cryptococcus gattii) was over 1 µg/mL.
With `Nc1ncccc1-c1cc(Cc2ccc(Oc3nc(Cl)cs3)cc2)no1` [compound 240, 3-(3-(4-((4-chlorothiazol-2-yl)oxy)benzyl)isoxazol-5-yl)pyridin-2-amine] the MIC (Candida albicans 90028) was 0.1 to 1 µg/mL (≈ 0.26 to 2.6 µM), the MIC [1] was 0.01 to 0.1 µg/mL (≈ 0.026 to 0.26 µM) and the minimal effective concentration [2] was 0.1 to 1 µg/mL. It also gave a minimal effective concentration [3] of 0.1 to 1 µg/mL and an MIC (Cryptococcus gattii) of 0.01 to 0.1 µg/mL (≈ 0.026 to 0.26 µM).
With `CCn1cc(Cc2ccc(Cc3cc(-c4cccnc4N)on3)cc2)cn1` [compound 12, 3-(3-(4-((1-ethyl-1H-pyrazol-4-yl)methyl)benzyl)isoxazol-5-yl)pyridin-2-amine] the MIC (Candida albicans 90028) was 0.1 to 1 µg/mL (≈ 0.278 to 2.78 µM), the MIC [1] was 0.1 to 1 µg/mL (≈ 0.278 to 2.78 µM) and the minimal effective concentration [2] was 0.01 to 0.1 µg/mL. For the same compound, the minimal effective concentration [3] was over 1 µg/mL and the MIC (Cryptococcus gattii) was 0.1 to 1 µg/mL (≈ 0.278 to 2.78 µM).
In the case of `Nc1ncccc1-c1cc(Cc2ccc(CNc3cccc(F)c3)cc2)no1` [compound 107, 3-(3-(4-(((3-fluorophenyl)amino)methyl)benzyl)isoxazol-5-yl)pyridin-2-amine], the MIC (Candida albicans 90028) is reported as 0.01 to 0.1 µg/mL (≈ 0.0267 to 0.267 µM), the MIC [1] is reported as 0.01 to 0.1 µg/mL (≈ 0.0267 to 0.267 µM) and the minimal effective concentration [2] is reported as 0.01 to 0.1 µg/mL. For the same compound, the minimal effective concentration [3] was 0.01 to 0.1 µg/mL and the MIC (Cryptococcus gattii) was 0.01 to 0.1 µg/mL (≈ 0.0267 to 0.267 µM).
With `Nc1ncccc1-c1cc(Cc2ccc(Nc3cccc(F)c3F)nc2)no1` [compound 72, 5-((5-(2-aminopyridin-3-yl)isoxazol-3-yl)methyl)-N-(2,3-difluorophenyl)pyridin-2-amine] the MIC (Candida albicans 90028) was 0.01 to 0.1 µg/mL (≈ 0.0264 to 0.264 µM), the MIC [1] was 0.01 to 0.1 µg/mL (≈ 0.0264 to 0.264 µM) and the minimal effective concentration [2] was 0.1 to 1 µg/mL. The minimal effective concentration [3] was 0.1 to 1 µg/mL and the MIC (Cryptococcus gattii) was 0.1 to 1 µg/mL (≈ 0.264 to 2.64 µM).
For `Nc1ncccc1-c1cc(Cc2ccc(Oc3cc(F)cc(F)n3)cc2)no1` [compound 239, 3-(3-(4-((4,6-difluoropyridin-2-yl)oxy)benzyl)isoxazol-5-yl)pyridin-2-amine], the MIC (Candida albicans 90028) was 0.1 to 1 µg/mL (≈ 0.263 to 2.63 µM), the MIC [1] was 0.01 to 0.1 µg/mL (≈ 0.0263 to 0.263 µM) and the minimal effective concentration [2] was 0.1 to 1 µg/mL. The minimal effective concentration [3] was 0.1 to 1 µg/mL and the MIC (Cryptococcus gattii) was 0.01 to 0.1 µg/mL (≈ 0.0263 to 0.263 µM).
`Nc1ncccc1-c1cc(Cc2ccc(Oc3cccc(Cl)n3)cc2)no1` [compound 234, 3-(3-(4-((6-chloropyridin-2-yl)oxy)benzyl)isoxazol-5-yl)pyridin-2-amine] gave an MIC (Candida albicans 90028) of 0.01 to 0.1 µg/mL (≈ 0.0264 to 0.264 µM), an MIC [1] of at most 0.01 µg/mL and a minimal effective concentration [2] of 0.01 to 0.1 µg/mL. It also gave a minimal effective concentration [3] of 0.1 to 1 µg/mL and an MIC (Cryptococcus gattii) of at most 0.01 µg/mL.
With `Nc1ncccc1-c1cc(Cc2ccc(Cc3ccnc(F)c3F)cc2)no1` [compound 20, 3-(3-(4-((2,3-difluoropyridin-4-yl)methyl)benzyl)isoxazol-5-yl)pyridin-2-amine] the MIC (Candida albicans 90028) was 0.1 to 1 µg/mL (≈ 0.264 to 2.64 µM), the MIC [1] was 0.01 to 0.1 µg/mL (≈ 0.0264 to 0.264 µM) and the minimal effective concentration [2] was 0.01 to 0.1 µg/mL. For the same compound, the minimal effective concentration [3] was 0.1 to 1 µg/mL and the MIC (Cryptococcus gattii) was 0.01 to 0.1 µg/mL (≈ 0.0264 to 0.264 µM).
For `Nc1ncccc1-c1cc(Cc2ccc(Oc3cc(F)cc(F)c3)nc2)no1` [compound 81, 3-(3-((6-(3,5-difluorophenoxy)pyridin-3-yl)methyl)isoxazol-5-yl)pyridin-2-amine], the MIC (Candida albicans 90028) was 0.01 to 0.1 µg/mL (≈ 0.0263 to 0.263 µM), the MIC [1] was at most 0.01 µg/mL and the minimal effective concentration [2] was 0.01 to 0.1 µg/mL. The minimal effective concentration [3] was 0.1 to 1 µg/mL and the MIC (Cryptococcus gattii) was 0.01 to 0.1 µg/mL (≈ 0.0263 to 0.263 µM).
`Nc1ncccc1-c1cc(Cc2ccc(COc3cc(F)ccc3F)cc2)no1` [compound 189, 3-(3-(4-((2,5-difluorophenoxy)methyl)benzyl)isoxazol-5-yl)pyridin-2-amine] gave an MIC (Candida albicans 90028) of 0.01 to 0.1 µg/mL (≈ 0.0254 to 0.254 µM), an MIC [1] of 0.01 to 0.1 µg/mL (≈ 0.0254 to 0.254 µM) and a minimal effective concentration [2] of 0.01 to 0.1 µg/mL. The minimal effective concentration [3] was over 1 µg/mL and the MIC (Cryptococcus gattii) was 0.1 to 1 µg/mL (≈ 0.254 to 2.54 µM).
`Nc1ncccc1-c1cc(Cc2ccc(OCc3ccc(F)cn3)nc2)no1` [compound 51, 3-(3-((6-((5-fluoropyridin-2-yl)methoxy)pyridin-3-yl)methyl)isoxazol-5-yl)pyridin-2-amine] was tested, and the MIC (Candida albicans 90028) was 0.1 to 1 µg/mL (≈ 0.265 to 2.65 µM), the MIC [1] was 0.1 to 1 µg/mL (≈ 0.265 to 2.65 µM) and the minimal effective concentration [2] was 0.01 to 0.1 µg/mL. The minimal effective concentration [3] was 0.1 to 1 µg/mL and the MIC (Cryptococcus gattii) was 0.1 to 1 µg/mL (≈ 0.265 to 2.65 µM).
